Key:
Format in all cases: cell-based, Escherichia coli
[1] = test system: E. coli EKO-35; assay: microbe, parasite or virus in culture; settings: for Fold change of MICs: EKO-35 compared to EKO-35 (reference); for Minimum inhibitory concentration (MIC), EKO-35: Table 10, without pore; for Minimum inhibitory concentration (MIC), EKO-35 / Minimum Inhibitory Concentration, EKO-35: technical duplicate; for Minimum Inhibitory Concentration, EKO-35: Table 13A, non-porinated
Outline: (§1)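 Steps: LB overnight culture at 37 °C; resuspension in PBS to OD600 ~1.0; 1/2000 dilution in MHB II; addition to 2-fold serial compound dilutions (duplicate); 18 h shaking incubation at 37 °C; OD600 read, with pre-read subtracted.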

[2] = test system: E. coli ΔtolC; assay: microbe, parasite or virus in culture; settings: technical duplicate; for Minimum inhibitory concentration (MIC), ΔtolC: Table 10, without pore; for Minimum Inhibitory Concentration, ΔtolC: Table 13A, non-porinated
Outline: as §1

[3] = test system: wild-type E. coli K-12 str. BW25113; assay: microbe, parasite or virus in culture; settings: technical duplicate; for Minimum inhibitory concentration (MIC), K-12: Table 10, without pore; for Minimum Inhibitory Concentration, K-12: Table 13A, non-porinated
Outline: as §1

[4] = test system: EKO-35 araC::acrEF; assay: MIC susceptibility profiling, efflux platform; settings: for Fold change of MICs: EKO-35 araC::acrEF compared to EKO-35; for Minimum Inhibitory Concentration, EKO-35 araC::acrEF: Table 13A, non-porinated, technical duplicate
Outline: as §1

[5] = test system: EKO-35 araC::emrAB; assay: MIC susceptibility profiling, efflux platform; settings: for Fold change of MICs: EKO-35 araC::emrAB compared to EKO-35; for Minimum Inhibitory Concentration, EKO-35 araC::emrAB: Table 13B, non-porinated, technical duplicate
Outline: as §1

[6] = test system: EKO-35 araC::macAB; assay: MIC susceptibility profiling, efflux platform; settings: for Fold change of MICs: EKO-35 araC::macAB compared to EKO-35; for Minimum Inhibitory Concentration, EKO-35 araC::macAB: Table 13B, non-porinated, technical duplicate
Outline: as §1

[7] = test system: wild-type (WT) K-12-Pore; assay: microbe, parasite or virus in culture; settings: technical duplicate; for Minimum inhibitory concentration (MIC), Pore K-12: Table 10, with pore; for Minimum inhibitory concentration, K-12 (WT)-Pore: Table 14A, porinated
Outline: (§2)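 Strains carry the fhuA ΔC/Δ4L pore integrated between glmS and pstS under a constitutive promoter, with pore activity checked by vancomycin susceptibility. Overnight LB cultures were adjusted in PBS pH 7.4 to OD600 ~1.0 and diluted 1/2000 into MHB II. 2-fold compound titrations were read by OD600 after 18 h at 37 °C.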

[8] = test system: ΔtolC-Pore; assay: microbe, parasite or virus in culture; settings: technical duplicate; for Minimum inhibitory concentration (MIC), Pore ΔtolC: Table 10, with pore; for Minimum inhibitory concentration, ΔtolC-Pore: Table 14A, porinated
Outline: as §2

[9] = test system: EKO-35-Pore; assay: MIC susceptibility profiling, porinated strain; settings: for Fold changes of MICs: EKO-35-Pore compared to EKO-35-Pore (reference); for Minimum inhibitory concentration (MIC), Pore EKO-35: Table 10, with pore; for Minimum inhibitory concentration (MIC), Pore EKO-35 / Minimum inhibitory concentration, EKO-35-Pore: technical duplicate; for Minimum inhibitory concentration, EKO-35-Pore: Table 14A, porinated
Outline: as §2

[10] = test system: EKO-35 araC::acrB Pore; assay: MIC susceptibility profiling, porinated efflux platform; settings: for Fold changes of MICs: EKO-35 araC::acr-B Pore compared to EKO-35-Pore; for Minimum inhibitory concentration, EKO-35 araC::acrB Pore: Table 14A, porinated, technical duplicate
Outline: as §2

[11] = test system: EKO-35 araC::acrBD408A Pore; assay: as above; settings: for Fold changes of MICs: EKO-35 araC::acrBD408A Pore compared to EKO-35-Pore; for Minimum inhibitory concentration: EKO-35 araC::acrBD408A Pore, technical duplicate
Outline: as §2

[12] = test system: EKO-35 araC::acrD Pore; assay: as above; settings: for Fold changes of MICs: EKO-35 araC::acrD Pore compared to EKO-35-Pore; for Minimum inhibitory concentration, EKO-35 araC::acrD Pore: Table 14A, porinated, technical duplicate
Outline: as §2

[13] = test system: EKO-35 araC::acrEF Pore; assay: as above; settings: for Minimum inhibitory concentration, EKO-35 araC::acrEF Pore: Table 14A, porinated, technical duplicate
Outline: as §2

[14] = test system: EKO-35 araC::emrAB Pore; assay: as above; settings: for Fold changes of MICs: EKO-35 araC::emrAB Pore compared to EKO-35-Pore; for Minimum inhibitory concentration: EKO-35 araC::emrAB Pore, technical duplicate
Outline: as §2

[15] = test system: EKO-35 araC::emrKY Pore; assay: as above; settings: for Fold changes of MICs: EKO-35 araC::emrKY Pore compared to EKO-35-Pore; for Minimum inhibitory concentration: EKO-35 araC::emrKY Pore, technical duplicate
Outline: as §2

[16] = test system: EKO-35 araC::macAB Pore; assay: as above; settings: for Fold changes of MICs: EKO-35 araC::macAB Pore compared to EKO-35-Pore; for Minimum inhibitory concentration: EKO-35 araC::macAB Pore, technical duplicate
Outline: as §2

[17] = test system: EKO-35 araC::mdtBC Pore; assay: as above; settings: for Fold changes of MICs: EKO-35 araC::mdtBC Pore compared to EKO-35-Pore; for Minimum inhibitory concentration: EKO-35 araC::mdtBC Pore, technical duplicate
Outline: as §2

[18] = test system: EKO-35 araC::mdtEF Pore; assay: as above; settings: for Minimum inhibitory concentration, EKO-35 araC::mdtEF Pore: Table 14A, porinated, technical duplicate
Outline: as §2

[19] = test system: EKO-35 araC::mexCD Pore; assay: as above; settings: for Fold changes of MICs: EKO-35 araC::mexCD Pore compared to EKO-35-Pore; for Minimum inhibitory concentration: EKO-35 araC::mexCD Pore, technical duplicate
Outline: as §2

Row | Structure (SMILES) | Fold change of MICs [1] [fold] | Minimum inhibitory concentration (MIC), EKO-35 [1] [µg/mL] | Minimum Inhibitory Concentration, EKO-35 [1] [µg/mL] | Minimum inhibitory concentration (MIC), ΔtolC [2] [µg/mL] | Minimum Inhibitory Concentration, ΔtolC [2] [µg/mL] | Minimum inhibitory concentration (MIC), K-12 [3] [µg/mL] | Minimum Inhibitory Concentration, K-12 [3] [µg/mL] | Fold change of MICs [4] [fold] | Minimum Inhibitory Concentration, EKO-35 araC::acrEF [4] [µg/mL] | Fold change of MICs [5] [fold] | Minimum Inhibitory Concentration, EKO-35 araC::emrAB [5] [µg/mL] | Fold change of MICs [6] [fold] | Minimum Inhibitory Concentration, EKO-35 araC::macAB [6] [µg/mL] | Minimum inhibitory concentration (MIC), Pore K-12 [7] [µg/mL] | Minimum inhibitory concentration, K-12 (WT)-Pore [7] [µg/mL] | Minimum inhibitory concentration (MIC), Pore ΔtolC [8] [µg/mL] | Minimum inhibitory concentration, ΔtolC-Pore [8] [µg/mL] | Fold changes of MICs [9] [fold] | Minimum inhibitory concentration (MIC), Pore EKO-35 [9] [µg/mL] | Minimum inhibitory concentration, EKO-35-Pore [9] [µg/mL] | further results
1 | O=[N+]([O-])c1ccc2c(c1)C(=NO)c1cc([N+](=O)[O-])ccc1-2 [compound 11] | 1 | 0.078 | 0.078 | 0.156 | 0.156 | 320 | 320 | 4096 | 320 | 512 | 40 | 1 | 0.078 | 80 | 80 | 0.156 | 0.156 | 1 | 0.078 | 0.078 | susceptibility of EKO-35 to the compound ([1]; synthetic efflux substrates of FIG. 12): susceptible; Fold changes of MICs [10]: 1024 fold; Minimum inhibitory concentration, EKO-35 araC::acrB Pore [10]: 80 µg/mL; Fold changes of MICs [11]: 1 fold; Minimum inhibitory concentration [11]: 0.078 µg/mL; Fold changes of MICs [12]: 4 fold; Minimum inhibitory concentration, EKO-35 araC::acrD Pore [12]: 0.313 µg/mL; Minimum inhibitory concentration, EKO-35 araC::acrEF Pore [13]: 80 µg/mL; Fold changes of MICs [14]: 16 fold; Minimum inhibitory concentration [14]: 1.25 µg/mL; Fold changes of MICs [15]: 1 fold; Minimum inhibitory concentration [15]: 0.078 µg/mL; Fold changes of MICs [16]: 1 fold; Minimum inhibitory concentration [16]: 0.078 µg/mL; Fold changes of MICs [17]: 1 fold; Minimum inhibitory concentration [17]: 0.078 µg/mL; Fold changes of MICs ([18]; EKO-35 araC::mdtEF Pore compared to EKO-35-Pore): 64 fold; Minimum inhibitory concentration, EKO-35 araC::mdtEF Pore [18]: 5 µg/mL; Fold changes of MICs [19]: 8 fold; Minimum inhibitory concentration [19]: 0.625 µg/mL
2 | CC(C)c1ccc(C=C(C#N)c2nc3ccccc3[nH]2)cc1 [compound 12] | 1 | 320 | 320 | 1.25 | 1.25 | 320 | 320 | 1 | 320 | 1 | 320 | 1 | 320 | 320 | 320 | 0.625 | 0.625 | 1 | 160 | 160 | Fold changes of MICs [10]: 2 fold; Minimum inhibitory concentration, EKO-35 araC::acrB Pore [10]: 320 µg/mL; Fold changes of MICs [11]: 2 fold; Minimum inhibitory concentration [11]: 320 µg/mL; Fold changes of MICs [12]: 1 fold; Minimum inhibitory concentration, EKO-35 araC::acrD Pore [12]: 160 µg/mL; Fold changes of MICs ([13]; EKO-35 araC::acrEF Pore compared to EKO-35-Pore): 2 fold; Minimum inhibitory concentration, EKO-35 araC::acrEF Pore [13]: 320 µg/mL; Fold changes of MICs [14]: 2 fold; Minimum inhibitory concentration [14]: 320 µg/mL; Fold changes of MICs [15]: 2 fold; Minimum inhibitory concentration [15]: 320 µg/mL; Fold changes of MICs [16]: 2 fold; Minimum inhibitory concentration [16]: 320 µg/mL; Fold changes of MICs [17]: 2 fold; Minimum inhibitory concentration [17]: 320 µg/mL; Minimum inhibitory concentration, EKO-35 araC::mdtEF Pore [18]: 320 µg/mL; Fold changes of MICs [19]: 2 fold; Minimum inhibitory concentration [19]: 320 µg/mL

Reference: US20230407243A1, “GENETIC PLATFORM TO INVESTIGATE THE FUNCTIONS OF BACTERIAL DRUG EFFLUX PUMPS” (priority 2022, published 2023)
